The record followed here is patent publication US20240059677A1, “SUBSTITUTED PYRIMIDINE DERIVATIVES AS NICOTINIC ACETYLCHOLINESTERASE RECEPTOR ALPHA 6 MODULATOR” (priority 2020, published 2024).

T1 sequence (Q05901 25-458 V273S): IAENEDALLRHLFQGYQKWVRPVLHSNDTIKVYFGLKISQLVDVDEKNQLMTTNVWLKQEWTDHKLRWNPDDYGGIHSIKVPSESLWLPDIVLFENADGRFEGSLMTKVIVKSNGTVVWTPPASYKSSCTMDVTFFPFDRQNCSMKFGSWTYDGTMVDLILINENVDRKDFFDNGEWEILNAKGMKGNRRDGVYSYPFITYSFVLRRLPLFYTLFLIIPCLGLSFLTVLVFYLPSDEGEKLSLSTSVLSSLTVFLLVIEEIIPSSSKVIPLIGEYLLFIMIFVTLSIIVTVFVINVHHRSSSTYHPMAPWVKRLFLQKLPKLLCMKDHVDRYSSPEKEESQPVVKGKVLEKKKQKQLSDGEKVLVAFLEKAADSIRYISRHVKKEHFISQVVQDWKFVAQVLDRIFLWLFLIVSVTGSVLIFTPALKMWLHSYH
T1 sequence (P17787 26-502, stated change not applied, further chain): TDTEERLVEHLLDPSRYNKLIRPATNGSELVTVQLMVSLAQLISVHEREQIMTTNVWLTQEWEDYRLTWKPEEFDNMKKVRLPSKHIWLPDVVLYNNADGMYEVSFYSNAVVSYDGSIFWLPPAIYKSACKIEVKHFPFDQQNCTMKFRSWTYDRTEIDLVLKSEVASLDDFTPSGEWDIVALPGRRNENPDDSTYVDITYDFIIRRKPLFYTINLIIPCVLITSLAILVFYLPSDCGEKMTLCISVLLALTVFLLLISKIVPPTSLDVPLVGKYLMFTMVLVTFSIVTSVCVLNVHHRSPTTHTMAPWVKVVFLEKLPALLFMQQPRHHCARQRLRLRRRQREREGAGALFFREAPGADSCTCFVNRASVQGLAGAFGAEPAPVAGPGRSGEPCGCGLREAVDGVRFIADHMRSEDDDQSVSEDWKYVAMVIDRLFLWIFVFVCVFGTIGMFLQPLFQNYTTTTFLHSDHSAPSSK
T1 sequence (Q15825+P32297 fused with the stated changes): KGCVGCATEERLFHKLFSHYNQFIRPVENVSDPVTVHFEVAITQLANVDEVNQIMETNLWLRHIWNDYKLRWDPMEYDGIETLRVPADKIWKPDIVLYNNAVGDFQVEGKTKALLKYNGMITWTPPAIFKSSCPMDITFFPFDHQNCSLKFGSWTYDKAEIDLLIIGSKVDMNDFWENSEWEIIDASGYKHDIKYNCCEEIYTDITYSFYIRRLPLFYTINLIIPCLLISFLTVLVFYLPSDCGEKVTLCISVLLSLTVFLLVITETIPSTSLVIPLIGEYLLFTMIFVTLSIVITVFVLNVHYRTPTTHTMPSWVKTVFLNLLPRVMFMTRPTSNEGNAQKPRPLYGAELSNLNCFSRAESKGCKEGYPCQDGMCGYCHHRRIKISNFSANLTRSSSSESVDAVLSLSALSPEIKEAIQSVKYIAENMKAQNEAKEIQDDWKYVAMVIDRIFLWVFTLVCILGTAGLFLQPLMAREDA

One experiment addresses T1, human nAChRα6-α3 chimera, in addition to β2 and β3^V273S subunits (Homo sapiens, UniProt P32297+Q15825).
T1 construct: expressed in transfected cells
Kind of experiment: fluorescence-based calcium assay: inhibition of nicotine stimulated nAChRα6 activity (FLIPR). To be noted: HEK cell line stably expressing the receptor; 10 min pre-incubation, nicotine EC80; 10-point curve, duplicate wells; read-out: IC50. As to the method:
The ability of the test compounds to inhibit nicotine stimulated nAChRα6 activity was determined in a fluorescence-based calcium assay. Compound activity was determined using a HEK cell line stably expressing a human nAChRα6-α3 chimera, in addition to β2 and β3^V273S subunits (as in Capelli et al, Br J Pharmacol 163(2): 313-29 2011). In this cell line, nicotine stimulated an increase in intracellular calcium concentration, measured as an increase in fluorescence when cells were incubated with a calcium sensitive dye. Test compounds were pre-incubated with cells prior to nicotine stimulation to detect any reduction in the magnitude of the nicotine response.
The day prior to the assay, compounds were serially diluted in DMSO (200× final assay concentration (FAC)), in 384-well plates which were then stored in the dark at room temperature (RT) until use. Cells were seeded at 20 k/well in black, poly-D-lysine coated, clear bottom 384-well plates and incubated for 4 hours at 37° C., followed by overnight incubation at 30° C. The following day, the DMSO compound plate was diluted 1:20 (10×FAC) in assay buffer (HEPES buffered saline solution with 10 mM HEPES, 0.1% bovine serum albumin, 1 mM probenecid). A nicotine solution was prepared in assay buffer (7×FAC) and dispensed into a 384-well plate. The growth media was removed from the cell plate, replaced with 53 μl calcium dye/well (Calcium 5; Molecular Devices) and the plate incubated at 30° C. for 45 minutes. Test compounds were then added to the cells (7 μl of 10×FAC) and incubated for 10 minutes, after which nicotine EC80 (10 μl of 7×FAC) was added and changes in fluorescence measured using a FLIPR plate reader (Molecular Devices).
Compound activity was examined using a 10-point, half-log concentration-response range and each concentration was tested in duplicate wells.
Take `Cc1nc(NC2CCCN(C)C2)ncc1-c1ccc(F)cc1F` (single isomer, unassigned) [Example 77b, 5-(2,4-difluorophenyl)-4-methyl-N-(1-methylpiperidin-3-yl)pyrimidin-2-amine]: the IC50 was determined as 0.093 µM. The same measure, in the same setting: for `Cc1nc(NC[C@H]2NCC[C@@H]2F)ncc1-c1ccc(C(F)(F)F)cc1F` (single isomer, unassigned) [Example 133b, 5-(2-fluoro-4-(trifluoromethyl)phenyl)-N-(((2*R,3*S)-3-fluoropyrrolidin-2-yl)methyl)-4-methyl-pyrimidin-2-amine] the value was 0.3 µM. Same read-out and setting: for `Cc1nc(NC[C@H]2NCC[C@@H]2F)ncc1-c1ccc(C(F)(F)F)cc1F` (single isomer, unassigned) [Example 133a, 5-(2-fluoro-4-(trifluoromethyl)phenyl)-N-(((2*S,3*R)-3-fluoropyrrolidin-2-yl)methyl)-4-methyl-pyrimidin-2-amine] the value was 0.305 µM. For the molecule `Cc1nc(NC(=O)[C@@H]2CCCN2C)ncc1-c1ccc(C(F)(F)F)cc1F` [Example 140, (S)—N-(5-(2-fluoro-4-(trifluoromethyl)phenyl)-4-methyl-pyrimidin-2-yl)-1-methylpyrrolidine-2-carboxamide], the IC50 turned out to be 0.079 µM. Consider `Cc1nc(NC2CC(N(C)C)C2)ncc1-c1ccc(F)cc1F` (single isomer, unassigned) [Example 68b, N^1-(5-(2,4-difluorophenyl)-4-methyl-pyrimidin-2-yl)-N^3,N^3-dimethylcyclobutane-1,3-diamine], for which the IC50 came to 0.067 µM. Turning to `Cc1nc(N[C@H]2CCCC[C@@H]2N(C)C)ncc1-c1ccc(C(F)(F)F)cc1F` [Example 109, (1S,2S)—N^1-(5-(2-fluoro-4-(trifluoromethyl)phenyl)-4-methyl-pyrimidin-2-yl)-N^2,N^2-dimethyl-cyclohexane-1,2-diamine], the half-maximal inhibitory concentration (IC50) was determined as 0.096 µM.

For the molecule `Cc1nc(NC2CCN(C(C)C)C2)ncc1-c1ccc(F)cc1F` (stereo not shown) [Example 22, 5-(2,4-difluorophenyl)-N-(1-isopropylpyrrolidin-3-yl)-4-methyl-pyrimidin-2-amine], the 50% inhibitory concentration (IC50) was determined as 0.05 µM.

Turning to `COc1ccc(-c2cnc(NCC3CCCN(C)C3)nc2C)c(F)c1` (stereo not shown) [Example 30, 5-(2-fluoro-4-methoxyphenyl)-4-methyl-N-((1-methylpiperidin-3-yl)methyl) pyrimidin-2-amine], the half-maximal inhibitory concentration (IC50) came out at 0.082 µM. `Cc1nc(NC[C@H]2CCCN2CC(F)(F)F)ncc1-c1ccc(F)cc1F` [Example 95a, (R)-5-(2,4-difluorophenyl)-4-methyl-N-((1-(2,2,2-trifluoroethyl)pyrrolidin-2-yl)methyl)pyrimidin-2-amine]: the IC50 was 0.048 µM. Consider `COc1ccc(-c2nnc(NCCC3CCCN3C)nc2C)c(F)c1` (stereo not shown) [Example 23, 6-(2-fluoro-4-methoxyphenyl)-5-methyl-N-(2-(1-methylpyrrolidin-2-yl)ethyl)-1,2,4-triazin-3-amine], for which the IC50 worked out at 0.233 µM. Same read-out and setting: for `COc1ccc(-c2cnc(NCC3CCCCN3C)nc2C#N)c(F)c1` (stereo not shown) [Example 25, 5-(2-fluoro-4-methoxyphenyl)-2-(((1-methylpiperidin-2-yl)methyl)amino) pyrimidine-4-carbonitrile] the value was 0.034 µM; for `Cc1nc(NC2CCN3CCCC23)ncc1-c1ccc(F)cc1F` (single isomer, unassigned) [Example 86b, N-(5-(2,4-difluorophenyl)-4-methyl-pyrimidin-2-yl)hexahydro-1H-pyrrolizin-1-amine], 0.126 µM. As to `Cc1nc(NCC2(N(C)C)CCCC2)ncc1-c1ccc(F)cc1F` [Example 11, 5-(2,4-difluorophenyl)-N-((1-(dimethylamino)cyclopentyl)methyl)-4-methyl-pyrimidin-2-amine], the IC50 is 0.246 µM. On the same count and under the same terms, for `CCN1CCCC1CNc1ncc(-c2ccc(C(F)(F)F)cc2F)c(C)n1` (stereo not shown) [Example 98, N-((1-ethylpyrrolidin-2-yl)methyl)-5-(2-fluoro-4-(trifluoromethyl)phenyl)-4-methyl-pyrimidin-2-amine] the value was 0.067 µM; for `COc1ccc(-c2cnc(NCC3CN(C)CCO3)nc2C)c(F)c1` (stereo not shown) [Example 36, 5-(2-fluoro-4-methoxyphenyl)-4-methyl-N-((4-methylmorpholin-2-yl)methyl)pyrimidin-2-amine], 0.14 µM; for `Cc1nc(NC(C)C2CCN(C)C2)ncc1-c1ccc(F)cc1F` (single isomer, unassigned) [Example 64b, 5-(2,4-difluorophenyl)-4-methyl-N-(1-(1-methylpyrrolidin-3-yl)ethyl) pyrimidin-2-amine], 0.088 µM. Take `Cc1nc(N[C@H]2CCC[C@H](N)C2)ncc1-c1ccc(C(F)(F)F)cc1F` [Example 125, (1S,3S)—N^1-(5-(2-fluoro-4-(trifluoromethyl)phenyl)-4-methyl-pyrimidin-2-yl)cyclohexane-1,3-diamine]: the 50% inhibitory concentration (IC50) came to 0.223 µM. With `COc1ccc(-c2cnc(NCc3cncn3C)nc2C)c(Cl)c1` [Example 63, 5-(2-chloro-4-methoxyphenyl)-4-methyl-N-((1-methyl-1H-imidazol-5-yl)methyl)pyrimidin-2-amine], the IC50 was 0.141 µM. For `Cc1nc(N[C@@H]2CNC[C@@H]2F)ncc1-c1ccc(C(F)(F)F)cc1F` (relative stereo) [Example 112, N-((cis)-4-fluoropyrrolidin-3-yl)-5-(2-fluoro-4-(trifluoromethyl)phenyl)-4-methyl-pyrimidin-2-amine], the concentration for half-maximal inhibition (IC50) was found to be 0.107 µM. Consider `Cc1nc(NCC2C(F)CCN2C)ncc1-c1ccc(F)cc1F` (single isomer, unassigned) [Example 96b, 5-(2,4-difluorophenyl)-N-((3-fluoro-1-methylpyrrolidin-2-yl)methyl)-4-methyl-pyrimidin-2-amine], for which the IC50 turned out to be 0.099 µM. Still for that read-out and setting: for `CN(C)C1CCCC(Nc2ncc(-c3ccc(F)cc3F)c(C#N)n2)C1` (single isomer, unassigned) [Example 59b, 5-(2,4-difluorophenyl)-2-((3-(dimethylamino)cyclohexyl)amino) pyrimidine-4-carbonitrile] the value was 0.134 µM; for `Cc1nc(NC[C@@H]2CCCNC2)ncc1-c1ccc(C(F)(F)F)cc1F` [Example 113, (R)-5-(2-fluoro-4-(trifluoromethyl)phenyl)-4-methyl-N-((3-piperidinyl)methyl)pyrimidin-2-amine], 0.045 µM; for `CN(C)C1CCC(Nc2ncc(-c3ccc(F)cc3F)c(C#N)n2)C1` (single isomer, unassigned) [Example 58a, 5-(2,4-difluorophenyl)-2-((3-(dimethylamino)cyclopentyl)amino) pyrimidine-4-carbonitrile], 0.038 µM. For the molecule `Cc1nc(NC2CCCN(C)C2)ncc1-c1ccc(F)cc1F` (single isomer, unassigned) [Example 77a, 5-(2,4-difluorophenyl)-4-methyl-N-(1-methylpiperidin-3-yl)pyrimidin-2-amine], the 50% inhibitory concentration (IC50) came out at 0.07 µM. On to `COc1ccc(-c2cnc(NC3CCC(N(C)C)C3)nc2C#N)c(F)c1` (single isomer, unassigned) [Example 38a, 2-((3-(dimethylamino)cyclopentyl)amino)-5-(2-fluoro-4-methoxyphenyl) pyrimidine-4-carbonitrile], for which the IC50 worked out at 0.059 µM. As to `Cc1nc(NC(C)[C@@H]2CCCN2C)ncc1-c1ccc(C(F)(F)F)cc1F` (single isomer, unassigned) [Example 132b, 5-(2-fluoro-4-(trifluoromethyl)phenyl)-4-methyl-N-((1*S)-1-((2S)-1-methylpyrrolidin-2-yl)ethyl)pyrimidin-2-amine], the IC50 turned out to be 0.097 µM. Still for that read-out and setting: for `CN1CCCC(Nc2ncc(-c3ccc(F)cc3)cn2)C1` (stereo not shown) [Example 5, 5-(4-fluorophenyl)-N-(1-methylpiperidin-3-yl)pyrimidin-2-amine] the value was 0.635 µM; for `Cc1nc(N[C@H]2CN3CCC2CC3)ncc1-c1ccc(C(F)(F)F)cc1F` [Example 119, (R)—N-(5-(2-fluoro-4-(trifluoromethyl)phenyl)-4-methyl-pyrimidin-2-yl) quinuclidin-3-amine], 0.155 µM; for `COc1ccc(-c2cnc(NC3CCC(N(C)C)C3)nc2C#N)c(F)c1` (single isomer, unassigned) [Example 38b, 2-((3-(dimethylamino)cyclopentyl)amino)-5-(2-fluoro-4-methoxyphenyl) pyrimidine-4-carbonitrile], 0.07 µM.

With `Cc1nc(NC2CCCN(CC(F)(F)F)C2)ncc1-c1ccc(F)cc1F` (stereo not shown) [Example 60, 5-(2,4-difluorophenyl)-4-methyl-N-(1-(2,2,2-trifluoroethyl)piperidin-3-yl) pyrimidin-2-amine], the IC50 was found to be 1.18 µM.

Still in this experiment, the particulars now being: IC50 (μM), HEK cell line stably expressing the receptor; 10 min pre-incubation, nicotine EC80; 10-point curve, duplicate wells.
As to `Cc1nc(N[C@@H]2CCCNC2)ncc1-c1ccc(C(F)(F)F)cc1F` [Example 128, (R)-5-(2-fluoro-4-(trifluoromethyl)phenyl)-4-methyl-N-(piperidin-3-yl) pyrimidin-2-amine], the IC50 stood at 0.18 µM.

The term IC50 denotes the concentration needed to halve the response being measured.
